Measured values as given in the supplement of paper PMC13380429.
Where a name gives a salt, the structure may show the parent alone.

Legend:
Settings in all cases: 72 h
[1] = tested on: Calu-3; assay: relative viability EC50 (midpoint between 100% and the lowest measured viability); higher = less toxic
[2] = tested on: Caco-2; assay: as above
[3] = tested on: U2OS; assay: as above
[4] = tested on: Calu-3; assay: drug sensitivity score (DSS) for viability; higher = more toxic; extreme values may be limits of the assay
[5] = tested on: Caco-2; assay: as above
[6] = tested on: U2OS; assay: as above
[7] = tested on: HepG2; assay: as above
[8] = tested on: Vero E6; assay: as above
[9] = tested on: Calu-3; assay: cell viability relative to DMSO; higher = less toxic
[10] = tested on: Caco-2; assay: as above
[11] = tested on: U2OS; assay: as above
[12] = tested on: HepG2; assay: as above
[13] = tested on: Vero E6; assay: as above
[14] = tested on: HepG2; assay: relative viability EC50 (midpoint between 100% and the lowest measured viability); higher = less toxic
[15] = tested on: Vero E6; assay: as above

SMILES	relative viability EC50 [1] [µM]	relative viability EC50 [2] [µM]	relative viability EC50 [3] [µM]	drug sensitivity score [4]	drug sensitivity score [5]	drug sensitivity score [6]	drug sensitivity score [7]	drug sensitivity score [8]	cell viability ([9]; 1 nM) [%]	cell viability ([9]; 10 nM) [%]	cell viability ([9]; 100 nM) [%]	cell viability ([9]; 1000 nM) [%]	cell viability ([9]; 10000 nM) [%]	cell viability ([10]; 1 nM) [%]	cell viability ([10]; 10 nM) [%]	cell viability ([10]; 100 nM) [%]	cell viability ([10]; 1000 nM) [%]	cell viability ([10]; 10000 nM) [%]	cell viability ([11]; 1 nM) [%]	cell viability ([11]; 10 nM) [%]	cell viability ([11]; 100 nM) [%]	cell viability ([11]; 1000 nM) [%]	cell viability ([11]; 10000 nM) [%]	cell viability ([12]; 1 nM) [%]	cell viability ([12]; 10 nM) [%]	cell viability ([12]; 100 nM) [%]	cell viability ([12]; 1000 nM) [%]	cell viability ([12]; 10000 nM) [%]	cell viability ([13]; 1 nM) [%]	cell viability ([13]; 10 nM) [%]	cell viability ([13]; 100 nM) [%]	cell viability ([13]; 1000 nM) [%]	cell viability ([13]; 10000 nM) [%]	relative viability EC50 [14] [µM]	relative viability EC50 [15] [µM]
c1cc(-c2cnn3cc(-c4ccc(N5CCNCC5)cc4)cnc23)c2cccnc2c1	3.69	2.67	2.11	4.5	5.1	7.6	0.8	2.5	109	104	97.4	111	6.2	93.9	99.7	102	95.1	20.6	97.4	93.2	95.9	87.2	1.5	108	101	97.2	102	74.9	92.4	99	92.6	87.7	69.3	–	–
COCc1c(-c2ccc(NC(=O)Nc3cc(C(F)(F)F)ccc3F)c(F)c2)c2c(N)ncnn2c1CN1CCOCC1 [ACTB-1003]	–	1.35	1.34	5.2	6.8	7.8	16.2	3.7	101	87.5	93.9	72.1	65.2	105	99	102	78.4	32.9	97.6	97.1	101	75	23.3	110	104	91.1	18.1	2.1	95.7	102	101	106	24.8	0.386	3.57
CCCC(C)(COC(N)=O)COC(=O)NC(C)C (stereo not given) [CARISOPRODOL]	> 10	> 10	> 10	0	0	0	–	0	108	88.2	93.2	85.7	98.1	96.1	103	97.6	101	104	102	97.7	101	102	104	–	–	–	–	–	106	101	98.8	105	101	–	> 10
N[C@@H](C(=O)O)c1cc(O)ccc1Cl [CHPG]	–	> 10	> 10	–	0	0	–	0	–	–	–	–	–	94.2	91.7	94.8	98.7	96	97.6	99	98.5	104	103	–	–	–	–	–	94.9	93.4	92.2	94.6	108	–	> 10
CS(=O)(=O)N1CCN(Cc2cc3nc(-c4cccc5[nH]ncc45)nc(N4CCOCC4)c3s2)CC1 [GDC-0941]	0.438	0.158	0.775	11.8	11.6	6.9	9.2	6.5	–	–	–	–	–	–	–	–	–	–	–	–	–	–	–	–	–	–	–	–	–	–	–	–	–	–	–
CC1Nc2ccc(Cl)cc2S(=O)(=O)N1 (stereo not given) [IDRA-21]	> 10	> 10	> 10	0	0	0	0	–	87.5	92.2	102	97.4	101	105	105	95	104	99	99.3	105	99.6	102	98.2	102	93.8	97.3	98.9	98	–	–	–	–	–	> 10	–
CC(C)c1ccc(NC(=O)c2cccs2)c(-c2nc3ccccc3[nH]c2=O)c1 [ML281]	–	> 10	> 10	–	0	0	0	0	–	–	–	–	–	102	102	96.5	102	93.5	111	105	101	102	98.3	103	106	105	95.7	102	96.3	101	97	95.5	96.1	> 10	> 10
Cc1ccc(NCCCc2ccccc2)c(N)c1 [NFKB-activation-inhibitor-II]	> 10	> 10	> 10	0.1	0	0	0	–	90	93.8	94.7	103	84.1	89.4	85	92.6	98.4	79.9	98.9	102	94.9	102	93.2	110	97.1	103	98.2	100	–	–	–	–	–	> 10	–
Cc1c(NC(=O)N2CCOCC2)ccc2c1c1ccccc1n2C(C)C [NPY-5RA972]	> 10	> 10	> 10	0	0	0	0	–	109	89.5	105	93.5	96	92.2	106	98.7	101	95.4	100	98.2	105	98.6	97.5	102	98.5	97.3	118	95.5	–	–	–	–	–	> 10	–
CC[C@H]1OC(=O)C[C@@H](O)[C@H](C)[C@@H](O[C@@H]2O[C@H](C)[C@@H](O[C@H]3C[C@@](C)(O)[C@@H](O)[C@H](C)O3)[C@H](N(C)C)[C@H]2O)[C@@H](CC=O)C[C@@H](C)C(=O)/C=C/C(C)=C/[C@@H]1CO[C@@H]1O[C@H](C)[C@@H](O)[C@@H](OC)[C@H]1OC [TYLOSIN TARTRATE]	–	1.03	0.566	2.1	8.9	8.7	4	5.2	104	108	104	91	74.6	101	96.4	109	63	23.4	102	97.3	96.9	56.6	39.9	99	101	95.2	94.8	40.7	102	102	98.7	95.2	18.9	2.44	2.7
CC(C)N1CCN(c2ccc(C(=O)c3c(-c4ccc(O)cc4)sc4cc(O)ccc34)cc2)CC1 [Y-134]	–	> 10	> 10	1	0.6	0	0.9	0.3	96	96.2	101	102	72.4	99.5	102	100	98.7	81.4	102	98.5	99	97.1	91.8	113	101	94	104	72.3	101	104	102	103	82.8	–	> 10
C=C(C)[C@@H]1CC[C@]2(C(=O)O)CC[C@]3(C)[C@H](CC[C@@H]4[C@@]5(C)CC[C@H](O)C(C)(C)[C@@H]5CC[C@]43C)[C@@H]12 [betulinic-acid]	> 10	> 10	> 10	0	0	0	0	–	93.1	97.9	93	106	100	102	108	92.3	112	102	101	101	98	99	95	109	97.4	114	101	113	–	–	–	–	–	> 10	–
O=c1[nH]c(=O)n([C@H]2C[C@H](O)[C@@H](CO)O2)cc1/C=C/Br [brivudine]	–	> 10	> 10	–	0	0	–	–	–	–	–	–	–	97	111	104	109	100	94.4	98.5	94.5	104	98	–	–	–	–	–	–	–	–	–	–	–	–
C=C1CC/C=C(\C)CC[C@@H]2[C@@H]1CC2(C)C [g-caryophyllene]	–	> 10	> 10	–	0.2	0	0	0	–	–	–	–	–	109	112	97.3	121	80.6	92.8	101	95.3	99.9	99	105	95.5	113	104	94.9	103	89.3	104	94.8	100	> 10	> 10
N#Cc1ccnc(N2C(=O)CC[C@H]2C(=O)N(c2cncc(F)c2)[C@H](C(=O)NC2CC(F)(F)C2)c2ccccc2Cl)c1 [ivosidenib]	> 10	> 10	> 10	0	0	0	0	–	98.8	109	93.7	104	97.3	105	97.6	94.2	93	104	104	100	104	101	98.3	97.5	97.7	95.1	106	98.7	–	–	–	–	–	> 10	–
C[C@H](Cc1ccc(O)c(O)c1)[C@@H](C)Cc1ccc(O)c(O)c1 [masoprocol]	> 10	–	> 10	0	9.6	0	0	1.4	95.5	108	93.4	93.6	93	88.3	83.1	72.1	78.6	55.5	92.1	104	97.7	97.8	95.9	98.3	94	94.5	101	97.1	102	91.6	88.6	91.5	81.3	> 10	> 10
